From US11865176B2, “Compositions and methods of modulating anti-tumor immunity” (Dana-Farber Cancer Institute, Inc., priority 2016, dated 2024)
Where a name gives a salt, the structure may show the parent alone.

Test system: PD-1-overexpressing Jurkat cells
Experiment: Small molecule screen: IL2 secretion (AlphaLISA) from stimulated PD-1-overexpressing Jurkat cells
Format: cell-based, human
Conditions: 3.3 μM compound; for Zscore_1 / Zscore_2: IL2 level, α-CD3/α-CD28/α-PD-1 beads; for Zscore_1: replicate 1; for Zscore_2: replicate 2; for Zscore_AVG: average of replicate Z scores
Method: PD-1-overexpressing Jurkat cells were plated at a concentration of 100,000 cells/well in a total volume of 80 μl. […] Dynabeads conjugated to α-CD3, α-CD28, and α-PD-1 antibodies were added in 20 for a final assay volume of 100 with a final compound concentration of 3.3 μM and an 8:1 bead:cell ratio. Beads were conjugated to α-CD3/α-CD28/control IgG and added to wells containing DMSO-treated cells as a positive control, while beads conjugated to α-CD3/α-CD28/α-PD1 were added to wells containing DMSO-treated cells as a negative control. Supernatants from each well were analyzed for IL2 levels by AlphaLISA (Perkin Elmers) according to the manufacturer's protocol. Average and standard deviation values were calculated from the PD-1 controls (DMSO-treated cells stimulated with α-CD3/α-CD28/α-PD-1 beads); hits were defined as compounds scoring at least 3 standard deviations from the mean of the controls.
In addition to known negative regulators of IL-2 production (e.g. glycogen synthase kinase-3α/β (GSK3α/β) (24,25)), this screen identified cyclin-dependent kinases 4 and 6 inhibitors (CDK4/6i) as top hits (Table 1).

| Compound | Zscore_1 | Zscore_2 | Zscore_AVG |
| --- | --- | --- | --- |
| PIM1 Kinase Inhibitor IV | −1.455 | −0.7294 | −1.092 |
| O=C1NC(=O)c2c1c(-c1ccccc1Cl)cc1[nH]c3ccc(O)cc3c21 [Wee1 Inhibitor] | −0.6621 | −2.209 | −1.436 |
| CC(C)[C@H](CO)Nc1nc(Nc2cc(N)cc(Cl)c2)c2ncn(C(C)C)c2n1 [Aminopurvalanol A] | −3.687 | −3.638 | −3.662 |
| c1ccc(-c2cnc(Nc3ccc(OCCN4CCCC4)cc3)s2)cc1 [Flt-3 Inhibitor III] | 1.171 | 3.361 | 2.266 |
| COc1cc2ncnc(Nc3cccc(O)c3)c2cc1OC [WHI-P180, Hydrochloride] | −4.627 | −4.112 | −4.37 |
| Nc1nccc(-c2c(-c3ccc(F)cc3)ncn2C2CCNCC2)n1 [SB 220025] | 14.69 | 27.59 | 21.14 |
| COc1cc2ncnc(Nc3ccc(NC(=O)c4ccccc4)cc3)c2cc1OC [Aurora Kinase Inhibitor II] | −0.6024 | 2.958 | 1.178 |
| COc1ccc(CNC(=O)Nc2ncc([N+](=O)[O-])s2)cc1 [GSK-3b Inhibitor VIII] | 1.017 | 0.5916 | 0.8042 |
| CCCCc1c(-c2ccc(OC)cc2)[nH]c2nccnc12 [Aloisine, RP106] | −0.8722 | −4.242 | −2.557 |
| O=c1c2ccccc2[nH]c(=S)n1CCN1CCC(=C(c2ccc(F)cc2)c2ccc(F)cc2)CC1 [Diacylglycerol Kinase Inhibitor II] | −0.9879 | 0.3398 | −0.324 |
| IKK-2 Inhibitor XI | −4.485 | −6.012 | −5.248 |
| G&omul; 7874, Hydrochloride | −4.465 | −6.385 | −5.425 |
| COc1ccc(S(=O)(=O)Nc2ccccc2CN(C)C/C=C/c2ccc(Cl)cc2)cc1 [KN-92] | 0.5356 | 0.3912 | 0.4634 |
| O=C1NC(=O)c2c1c1c3ccccc3[nH]c1c1[nH]c3cc(Br)ccc3c21 [Cdk4 Inhibitor] | 7.007 | 16.07 | 11.54 |
| Cl.Cl.O=S(=O)(NCCNC/C=C/c1ccc(Br)cc1)c1cccc2cnccc12 [H-89, Dihydrochloride] | −3.268 | −0.4334 | −1.851 |
| O=C1Nc2ccc(Br)cc2/C1=C/c1cc2c([nH]1)CCCC2 [VEGF Receptor 2 Kinase Inhibitor II] | 0.1217 | −0.1806 | −0.02944 |
| CCCCn1c2ccc(O)cc2c2c3c(c(-c4ccccc4Cl)cc21)C(=O)NC3=O [Wee1 Inhibitor II] | 0.7541 | −1.786 | −0.5162 |
| Cl.Cl.N=C(N)NCCNS(=O)(=O)c1cccc2cnccc12 [HA 1004, Dihydrochloride] | 0.08457 | −0.6711 | −0.2933 |
| COc1ccc(CNc2nc(N(CCO)CCO)nc3c2ncn3C(C)C)cc1 [Cdk2 Inhibitor III] | −2.414 | −4.745 | −3.58 |
| O=C1NCCc2[nH]c(-c3ccnc(-c4cnc5ccccc5c4)c3)cc21 [MK-2 Inhibitor III] | −4.419 | −7.061 | −5.74 |
| CCOC(=O)c1c(C)[nH]c(/C=C2\C(=O)Nc3ccccc32)c1C [VEGF Receptor 2 Kinase Inhibitor I] | −0.8038 | −1.721 | −1.262 |
